Test system: isolated rat liver mitochondria
Test: ROS production in isolated mitochondria (DCFH oxidation to DCF)
Type: biochemical
Experimental: Male Long Evans rats are starved overnight and sacrificed by decapitation. Liver samples are homogenized in ice cold buffer A (250 mM sucrose, 10 mM Tris, 0.1 mM EGTA, pH 7.4), and nuclei and cellular debris are pelleted (10 min, 830 g, 4° C.). Mitochondria are collected by centrifugation (10 min, 15,000 g, 4° C.), and the supernatant is collected as the S15 fraction. The mitochondrial pellet is washed three times with buffer B (250 mM sucrose, 10 mM Tris, pH 7.4), and re-suspended in buffer B at 20–30 mg/mL. Mitochondria are diluted (0.5 mg/mL) in buffer C (200 mM sucrose, 10 mM Tris, pH 7.4, 1 mM KH2PO4, 10 μM EGTA, 2.5 μM rotenone, 5 mM succinate) containing 2′,7′-dichlorodihydrofluorescin diacetate (DCFH-DA, 1 μM). For state 3 measurements, ADP (2 mM) is included in the buffer, and prior to the addition of Bz-423, mitochondria are allowed to charge for 2 min. To induce state 4, oligomycin (10 μM) is added to buffer C. […] To detect effects on O2^− and delta ψm, mitochondria are incubated for 15 min at 37° C. in buffer C with vehicle, Bz-423, or CCCP containing DHE (5 μM) or DIOC6(3) (20 nM), and aliquots are removed for analysis by fluorescence microscopy.
O2^− production by Bz-423 may result from binding to a protein within mitochondria or a target in another compartment that signals mitochondria to generate ROS. To distinguish between these alternatives, isolated rat liver mitochondria were assayed for ROS production by monitoring the oxidation of 2′,7′-dichlorodihydrofluorescin diacetate to of 2′,7′-dichlorofluorescin in the presence and absence of Bz-423. In this assay, the rate of DCF production increased after a lag period during which endogenous reducing equivalents were consumed and the acetate moieties on the probe were hydrolyzed to yield 2′,7′-dichlorodihydrofluorescin, the redox-active species.

CN1C(=O)C(Cc2ccc3ccccc3c2)N=C(c2ccc(O)cc2)c2cc(Cl)ccc21 (centres unmarked) [Bz-423]
Increase in rate of ROS production versus control (state 3 respiration, aerobic, after induction phase, slopes compared to control): nearly two-fold
ROS production in state 4 mitochondria (state 4 respiration): does not stimulate ROS

Reference: patent US7144880B2, “Compositions relating to novel compounds and targets thereof” (Regents of the University of Michigan, priority 2003, dated 2006)
